Experimental data from US11933781B2, “Fibrosis model and methods of use thereof” (The Regents of the University of Colorado, priority 2020, dated 2024).

Columns and labels:
Format in all cases: cell-based, human
IPF HBECs [1] = assay: Induction of the unjammed-to-jammed transition (UJT) in IPF HBECs; details: day 14 IPF HBECs
Source text: (§1) Epithelial Cell Culture: Primary human bronchial epithelial cells (HBECs) were obtained from two sources (1) provided by Dr. Hong Wei Chu at National Jewish Health, or (2) lung transplant collection at the University of Colorado Hospital (IRB protocol: 11-1664 or 18-0572). Epithelial cells from bronchial brushes or CT-guided dissection were expanded to passage 2 before being cultured at air liquid interface (ALI). Control (N=11), IPF (N=6), and COPD (N=3) were age matched and controls had no history of chronic lung disease (Table 1). Cells were seeded on 24-Transwell plates (Corning, Corning, New York, 3470) coated with type I collagen (Corning, Corning, New York, 354236) and maintained under submerged conditions for five to seven days until the cells reached confluence. Culture media was a 1:1 mixture of DMEM and BEBM (Lonza, Basel, Switzerland, CC170) supplemented with retinoic acid (Sigma-Aldrich, Germany, R-2625) nystatin (Sigma-Aldrich, Germany N1638), and bovine serum albumin (FisherSci, Thermo Fisher Scientific, Waltham, Massachusetts BP9703100). Once confluent, apical media was removed and maintained at ALI. HBECs began recapitulating the in vivo airway, with production of mucus (6-9 days after establishing ALI) and development of a pseudostratified epithelium. Cells were switched to a starvation media (lacking supplemental epidermal growth factor, hydrocortisone, and bovine pituitary extract) 24 hours prior to experimentation.
(§2) For inhibitor, activator, and ligand treatments HBECs were cultured in a starvation media in the absence of EGF, hydrocortisone, and bovine pituitary extract for 24 hours prior to treatment initiation. Cells were then treated for 2-4 hours (with exception of AREG neutralizing antibody which was maintained in the culture media), media was aspirated, the wells were washed with warm PBS and then replaced with fresh starvation media without inhibitor/activator/ligand present, and subsequently imaged. For experiments that required subsequent media changes (96 hour) cells fresh starvation media was changed 48 hours afterwards.
(§3) Live Cell Imaging and Dynamics Measurement: To assess cellular dynamics, time-lapse microscopy and subsequent analysis were completed. Two imaging schemes were utilized: (1) images were taken every 5 minutes for 200 minutes during HBEC differentiation; (2) images were taken every 20 minutes for 48, 96, or 144 hours after HBEC experimental intervention. Phase contrast images were acquired on a Keyence BZ-X810 with a stage incubator (37° C., 5% CO2). Dynamic analysis followed previously published workflows (10-12, 22). Briefly, using phase contrast images instantaneous velocities were mapped by particle image velocimetry utilizing open source PIVLab on MATLAB. Velocity fields were obtained with 2 passes (64×64 and 32×32 pixel size interrogation window with 50% overlap) with a pixel size of 0.75488 μm using a Fast Fourier Transformation method. Trajectories from the PIV were seeded onto a grid and obtained via forward-integration of subsequent fields. These values were then used to determine mean-squared-displacement (MSD) and self-overlap order parameter (Q): MSD(Δt)= ? ri(t+Δt)−ri(t)|2 ? and Q(Δt)=N−1ΣwiNi=1 as previously published. Instantaneous room mean squared velocity (VRMS) of the monolayer was obtained as previously published: VRMS(t)=√1MΣ ? |v(t)2 ? jMj=1
(§4) Cell Shape Analysis: Cell shape measurements were achieved via cell border delineation by F-actin immunofluorescence. Images were segmented utilizing SeedWater Segmenter. Similar to previously published workflows, we segmented images which were subsequently analyzed in ImageJ for the shape index (q=Perimeter√Area) and aspect ratio (major and minor axis) for all cells within a given field of view. For each experimental condition an n≥3 was used with at least 3 independent wells per donor per treatment condition. […]

IPF HBECs [2] = assay: YAP immunofluorescence in IPF HBECs; details: IPF HBECs 48 hours after treatment
Procedure: (§5) Immunofluorescence staining: Cells were fixed with 4% paraformaldehyde in PBS with calcium and magnesium for 30 minutes at room temperature. Cells were then washed with PBS and subsequently permeabilized (Triton™-X, at 0.1%) and blocked with 5% bovine serum albumin in PBS for 1 hour at room temperature. Cells were then incubated for >16 hours at 4 degrees with primary antibodies. Primary antibodies were aspirated, and cells were washed with PBS+0.1% Tween-20 at room temperature. Cells were then incubated for 1 hour at room temperature with secondary antibodies (1:500) and/or Phalloidin-iFluor™ 488 1:2000. Cells were stained with 4′,6-diamidino-2-phenylindole at 1:20000 (BioLegend®, San Diego, California, 422801). Subsequently, transwell membranes, or hydrogels, were removed from the well and mounted on glass slides with Fluoromount-G® (SouthernBiotech™, Birmingham, Alabama, 0100-01). Slides were then visualized using an Olympus BX63 microscope (Olympus, Tokyo, Japan).
(§6) Immunofluorescence and cell number quantification for HBEC experiments: For total fluorescence quantification (i.e., ERBB2), all images were processed in the same manner with the same microscopy settings. To determine mean fluorescence the channel of interest was separated in ImageJ, and the mean gray value was measured for the field of view and normalized by the total number of cells. Cell counting was achieved by taking 40×images and manually counting all nuclei in a field of view (approximately 200-300). The number of cells also expressing the marker of interested were then counted and normalized by the total number of cells per field. For each experiment a biological n≥3 was used with at least 5 fields of view per well and at least 2 wells being counted in total per donor.

control HBECs [3] = assay: Induced unjamming of control HBECs at air-liquid interface (live cell imaging, cell shape); details: for ability to induce an unjammed state in control epithelia: control HBECs at ALI day 14; for induction of unjammed state in mature monolayer: control HBECs treated at ALI day 28; for time at which migratory capacity of control epithelia begins to diminish: treatment at day 14 of ALI
Source text: as §1, §2, §3, §4

IPF HBECs [4] = assay: Gene expression of ERBB receptors, YAP target genes and MUC5B in IPF HBECs; details: IPF HBECs after inhibition
Procedure: Quantitative RT-PCR Analysis: Total RNA was extracted using RNeasy® Mini kit (Qiagen, Hilden, Germany) and quantified by NanoDrop™ (ThermoFisher Scientific™, Waltham, Massachusetts).Reverse transcription was completed using the High Capacity cDNA Reverse Transcription Kit (Applied Biosystems™, Thermo Fisher Scientific™, Waltham, Massachusetts). Gene expression was analyzed by using TaqMan® Advanced Master Mix (Thermo Fisher Scientific™, Waltham, Massachusetts and TaqMan® assays. They were subsequently run in triplicate on the ViiA™ 7 Real-Time machine (Thermo Fisher Scientific™, Waltham, Massachusetts). Primer IDs were: β-ACTIN, Hs01060665_g1; MUC5B, Hs00861595_m1; MUC5AC, Hs01365616_m1; EGFR, Hs0176090_m1; ERBB2, Hs01001580_m1; ZEB1, Hs00232783_m1; SNAI1, Hs00195591_m1; VIM, Hs00185584_m1; CTGF, Hs00170014_m1; AREG, Hs00950669_m1; FN1, Hs01549976_m1; PDGFRA, Hs00998018_m1; PDGFA, Hs00234994_m1; PDGFRB, Hs01019589_m1; PDGFB, Hs00966522_m1; TGFBRI, Hs00610320_m1; TGFBI, Hs00998133_m1; COL1A1, Hs00164004_m1; ACTA2, Hs00426835; MMP3, Hs00968305_m1; MMP9, Hs00957562_m1; TIMP1, Hs01092512_g1; and TIMP2, Hs00234278_m1.

COPD HBECs = assay: Induction of jamming in COPD HBECs
Source text: as §1
as §2, with “afterwards. […]” for “afterwards.”

control HBECs [5] = assay: Immunofluorescence of Ki67 and YAP in control HBECs; details: for cell type showing YAP nuclear localization: control HBECs after treatment; for YAP nuclear localization / proliferation (Ki67+): control HBECs, 48 hours after treatment
Procedure: as §5, §6

control HBECs [6] = assay: Barrier function (TEER) of control HBECs
Procedure: Barrier function measurements: The transepithelial electrical resistance (TEER) was assessed utilizing the Millicell® ERS-2 Voltohmeter (MilliporeSigma™, Burlington, Massachusetts, MERS00002). Briefly, cells were incubated with PBS with calcium and magnesium (at 37 degrees for 20 minutes prior to barrier measurement). The probe was inserted, and the resultant ohm reading was recorded. The final value was calculated by:
This value was subtracted by 100 (the resistance of a blank well) and multiplied by 0.33 (the surface area of a single well in a 24 well plate). A minimum of 3 wells were recorded per donor per treatment condition. These values were subsequently averaged per treatment and graphed.

[7] = control HBECs by MUC5B promoter variant status

## CNc1nc(-c2ccc3c(N)n[nH]c3c2)cc(N2C[C@@H](C(=O)NC3CCCCC3)CC[C@H]2C)n1 [GSK2334470]
IPF HBECs [1]
  induction of the UJT (jamming) in IPF epithelia: induces jamming in IPF epithelia
IPF HBECs [2]
  YAP nuclear exclusion: results in YAP nuclear exclusion

## EGF: High-affinity EGFR ligand, EGFR agonist (R&D Systems 263-EG) (NSDSECPLSHDGYCLHDGVCMYIEALDKYACNCVVGYIGERCQYRDLKWWELR; Epidermal growth factor; UniProt P01133 971-1023, looked up)
Control HBECs [3]
  ability to induce an unjammed state in control epithelia: only AREG treatment had the ability to induce an unjammed state

## NCC(=O)Nc1ccc(-n2nc(C(F)(F)F)cc2-c2ccc3c(ccc4ccccc43)c2)cc1 [OSU03012, OSU-03012]
IPF HBECs [4]
  transcription of ERBB receptors, YAP target genes and MUC5B: decreases 738 ERBB-YAP target gene expression
COPD HBECs
  induction of jamming in COPD epithelia: not responsive to ERBB-YAP inhibition
IPF HBECs [1]
  induction of the UJT (jamming) in IPF epithelia: induces jamming in IPF epithelia
IPF HBECs [2]
  YAP nuclear exclusion: results in YAP nuclear exclusion

## AREG: Recombinant amphiregulin, low affinity EGFR ligand (R&D Systems 262-AR)
Control HBECs [3]
  ability to induce an unjammed state in control epithelia: only AREG treatment had the ability to induce an unjammed state
  induction of unjammed state in mature monolayer: unjammed state was induced regardless of monolayer maturity
  time at which migratory capacity of control epithelia begins to diminish: ~36 h
Control HBECs [3]; [7]
  persistence in the unjammed state, rs35705950 GT vs GG epithelia: persisted in the unjammed state significantly longer than GG epithelia
  root-mean-squared velocity, rs35705950 GT vs GG epithelia: higher root-mean-squared velocity than their GG counterparts
Control HBECs [5]
  cell type showing YAP nuclear localization: predominantly in multi-ciliated cells (FOXJ1+)
  YAP nuclear localization: did lead to YAP nuclear localization
  proliferation (Ki67+): neither AREG nor XMU treatment resulted in increased proliferation
Control HBECs [6]; control HBECs GG or GT
  barrier function in genotype-dependent unjamming: did not alter barrier function
Control HBECs [6]; control HBECs at ALI day 14
  barrier function (TEER) after treatment: without diminishing barrier function

## CS(=O)(=O)CCNCc1ccc(-c2ccc3ncnc(Nc4ccc(OCc5cccc(F)c5)c(Cl)c4)c3c2)o1 [Lapatinib]
IPF HBECs [4]
  transcription of ERBB receptors, YAP target genes and MUC5B: decreases 738 ERBB-YAP target gene expression
IPF HBECs [1]
  induction of the UJT (jamming) in IPF epithelia: induces jamming in IPF epithelia
IPF HBECs [2]
  YAP nuclear exclusion: results in YAP nuclear exclusion

## CN1CCN(c2nc(C3=C(c4c[nH]c5ccccc45)C(=O)NC3=O)c3ccccc3n2)CC1 [Sotrastaurin]
IPF HBECs [1]
  induction of the UJT (jamming) in IPF epithelia: did not induce the UJT

## NC1(c2ccc(-c3nc4ccn5c(=O)[nH]nc5c4cc3-c3ccccc3)cc2)CCC1 [MK-2206]
IPF HBECs [1]
  induction of the UJT (jamming) in IPF epithelia: did not induce the UJT

## CN1C(=O)c2sccc2N(C)c2nc(Nc3ccc(S(N)(=O)=O)cc3)ncc21 [XMU-MP-1]
Control HBECs [3]
  ability to induce an unjammed state in control epithelia: had the ability to elicit an unjammed state
  induction of unjammed state in mature monolayer: unjammed state was induced regardless of monolayer maturity
  time at which migratory capacity of control epithelia begins to diminish: ~36 h
Control HBECs [5]
  cell type showing YAP nuclear localization: predominantly in multi-ciliated cells (FOXJ1+)
  YAP nuclear localization: did lead to YAP nuclear localization
  proliferation (Ki67+): neither AREG nor XMU treatment resulted in increased proliferation

## TGFα: High-affinity EGFR ligand, EGFR agonist (R&D Systems 239-A-100)
Control HBECs [3]
  ability to induce an unjammed state in control epithelia: only AREG treatment had the ability to induce an unjammed state

## COc1cc2ncnc(Nc3cccc(Cl)c3)c2cc1OC [AG1478, Tyrphostin AG-1478]
IPF HBECs [4]
  transcription of ERBB receptors, YAP target genes and MUC5B: reduced the transcription of ERBB receptors, YAP target genes, and MUC5B nearly back to control levels
COPD HBECs
  induction of jamming in COPD epithelia: not responsive to ERBB-YAP inhibition
IPF HBECs [1]
  induction of the UJT (jamming) in IPF epithelia: halted migration and induced a cobblestone appearance in the epithelia
IPF HBECs [2]
  YAP nuclear exclusion: results in YAP nuclear exclusion

## FC(F)(F)c1ccc(/C=C/c2nc(COc3ccc(CCCCn4ccnn4)cc3)co2)cc1 [Mubritinib]
IPF HBECs [4]
  transcription of ERBB receptors, YAP target genes and MUC5B: decreases 738 ERBB-YAP target gene expression
IPF HBECs [1]
  induction of the UJT (jamming) in IPF epithelia: induces jamming in IPF epithelia
IPF HBECs [2]
  YAP nuclear exclusion: results in YAP nuclear exclusion

## C#Cc1cccc(Nc2ncnc3cc(OCCOC)c(OCCOC)cc23)c1 [Erlotinib]
IPF HBECs [4]
  transcription of ERBB receptors, YAP target genes and MUC5B: decreases 738 ERBB-YAP target gene expression
IPF HBECs [1]
  induction of the UJT (jamming) in IPF epithelia: induces jamming in IPF epithelia
IPF HBECs [2]
  YAP nuclear exclusion: results in YAP nuclear exclusion
